From patent US9227935B2, “Piperidine/piperazine derivatives” (Janssen Pharmaceutica N.V., priority 2007, dated 2016)

Target: T1, human DGAT1 (Homo sapiens, UniProt O75907)
T1 construct: FLAG (N); made in house; host or cells: SF9 insect cells (baculovirus, pFastBac); total cell membranes used as the enzyme source
T1 sequence (O75907 1-488): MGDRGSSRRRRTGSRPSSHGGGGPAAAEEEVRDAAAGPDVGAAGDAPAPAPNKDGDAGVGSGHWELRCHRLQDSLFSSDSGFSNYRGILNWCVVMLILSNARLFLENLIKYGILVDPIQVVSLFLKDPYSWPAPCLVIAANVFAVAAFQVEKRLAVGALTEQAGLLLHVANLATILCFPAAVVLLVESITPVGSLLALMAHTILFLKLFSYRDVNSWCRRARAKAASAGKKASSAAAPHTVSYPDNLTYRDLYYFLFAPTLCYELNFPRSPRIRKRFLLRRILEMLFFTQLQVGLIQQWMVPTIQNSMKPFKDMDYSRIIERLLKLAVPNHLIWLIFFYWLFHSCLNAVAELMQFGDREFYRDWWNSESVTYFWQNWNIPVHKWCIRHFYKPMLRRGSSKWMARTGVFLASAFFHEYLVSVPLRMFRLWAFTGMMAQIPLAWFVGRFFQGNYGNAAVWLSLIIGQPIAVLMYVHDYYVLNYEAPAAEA
Test: DGAT1 FlashPlate inhibition assay with DGAT1 membrane preparations
Type: biochemical
Settings: IC50 values expressed in M; pIC50 = -logIC50; inhibition of DGAT1 activity
Source text: The inhibiting activity of the present compounds on DGAT1 activity was screened in a single well procedure assay using DGAT1 comprising membrane preparations and DGAT1 substrate comprising micelles and determining formed radio-active triacylglycerol coming in close proximity of a flashplate surface by radioluminescence.
Said assay is described in full detail in WO2006/067071, the content of which is incorporated herein by reference.
By DGAT1 activity is meant the transfer of coenzyme A activated fatty acids to the 3-position of 1,2-diacylglycerols, thus forming a triglyceride molecule, by enzyme DGAT1.
human DGAT1 (NM012079.2) was cloned into the pFastBac vector, containing translation start, a FLAG-tag at the N-terminus as described in literature and a viral Kozak sequence (AAX) preceding the ATG to improve expression in insect cells. Expression was done as described in literature (Cases, S., Smith, S. J., Zheng, Y., Myers H. M., Lear, S. R., Sande, E., Novak, S., Collins, C., Welch, C. B., Lusis, A. J., Erickson, S. K. and Farese, R. V. (1998) Proc. Natl. Acad. Sci. USA 95, 13018-13023.) using SF9 cells.
72 h transfected SF9 cells were collected by centrifugation (13000 rpm-15 min-4° C.) and lysed in 2×500 ml lysis buffer (0.1M Sucrose, 50 mM KCl, 40 mM KH2PO4, 30 mM EDTA pH 7.2. Cells were homogenized by cell disruptor. After centrifugation 1380 rpm-15 min-4° C. (SN discarded), pellet was resuspended in 500 ml lysis buffer and total cell membranes collected by ultracentrifugation at 34000 rpm (100 000 g) for 60 min (4° C.). The collected membranes were resuspended in lysis buffer, divided in aliquots and stored with 10% glycerol at −80° C. until use.
Add 1 ml dioleoyl-sn-glycerol (10 mg/ml) to 10 ml of L-α-phosphatidylcholine (1 mg/ml) and 10 ml of L-α-phosphatidyl-L-serine (1 mg/ml) in a thick glass recipient. Evaporate under nitrogen and put on ice for 15 minutes. Reconstitute in 10 ml Tris/HCl (10 mM, pH 7.4) by sonication on ice. The sonification process consists of sonification cycles of 10 seconds in the sonification bath followed by 10 seconds cool down on ice and repeating this sonification cycle till a homogeneous solution is obtained (takes about 15 minutes). The thus obtained micelles are stored at −20° C. till later use and contain DAG at a final concentration of 1.61 mM.
• 50 mM Tris-HCl (pH 7.4), 150 mM MgCl2, 1 mM EDTA, 0.2% BSA. b) N-ethylmaleimide, 5M • Dissolve 5 g into a final volume of 8 ml DMSO 100% and store at −20° C. in aliquots till later use. c) Substrate mix (for 1 384 well plate=3840 μl) • 612 μl micelles stock (51 μM final) • 16.6 μl oleoylCoA 9.7 mM • 23 μl [^3H]-oleoylCoA (49 Ci/mmol, 500 μCi/ml) • 3188.4 μl Tris pH 7.4, 10 mM d) Enzyme mix (for 1 384 well plate=3520 μl) (5 μg/ml) • Add 11.73 μl of DGAT membrane stock (1500 μg/ml stock) to 3508 μl assay buffer. e) Stop mix (for 1 384 well plate=7.68 ml) (250 mM) • Add 384 μl of N-ethylmaleimide (5M) to 3.456 ml DMSO 100%, and further dilute 3.84 ml of said solution with 3.84 ml DMSO 10%. Method
DGAT activity in membrane preparations was assayed in 50 mM Tris-HCl (pH 7.4), 150 mM MgCl2, 1 mM EDTA and 0.2% BSA, containing 50 μM DAG, […] PC/PS and 8.4 μM [^3H]-oleoylCoA (at a specific activity of 30 nCi/well) in a final volume of 50 μl in 384-well format using the red shifted Basic Image FlashPlate™ (Perkin Elmer Cat. No. SMP400).
In detail, 10 μl enzyme mix and 10 μl substrate mix were added to 30 μl of assay buffer, optionally in the presence of 1 μl DMSO (blank and controls) or 1 μl of the compound to be tested. This reaction mixture was incubated for 120 minutes at 37° C. and the enzymatic reaction stopped by adding 20 μl of the stop mix. The plates were sealed and the vesicles allowed to settle overnight at room temperature. Plates were centrifuged for 5 minutes at 1500 rpm and measured in Leadseeker. […]

IC50 [nM]	Structure (SMILES)
8.13	CC(C)(C)OC(=O)N1CC(C(=O)Nc2ccc(C3CCN(C(=O)Nc4c(Cl)cccc4Cl)CC3)cc2)C1 [Compound 1]
112	Cc1nc(C(=O)Nc2ccc(N3CCN(C(=O)Nc4c(Cl)cccc4Cl)CC3)cc2)c(-c2ccc(C(C)C)cc2)s1 [Compound 2]
1170	Cc1nc(C(=O)Nc2ccc(C3CCN(C(=O)Nc4c(Cl)cccc4Cl)CC3)cc2)c(-c2ccc(C(C)C)cc2)s1 [Compound 3]
24.5	O=C(Nc1ccc(N2CCN(C(=O)Nc3c(Cl)cccc3Cl)CC2)cc1)c1ccccc1-c1ccco1 [Compound 4]
7590	O=C(Nc1ccc(N2CCN(C(=O)NCC3CCCCC3)CC2)cc1)c1ccccc1-c1ccc(C(F)(F)F)cc1 [Compound 5]
9120	O=C(Nc1ccc(N2CCN(C(=O)c3c(Cl)cccc3Cl)CC2)cc1)c1ccccc1-c1ccc(C(F)(F)F)cc1 [Compound 6]
3470	Cc1ccccc1NC(=O)N1CCC(c2ccc(NC(=O)c3ccccc3-c3ccc(C(F)(F)F)cc3)cc2)CC1 [Compound 7]
324	Nc1ccccc1C(=O)Nc1ccc(C2CCN(C(=O)Nc3c(Cl)cccc3Cl)CC2)cc1 [Compound 10]
1120	CN1CC(C(=O)Nc2ccc(N3CCN(C(=O)Nc4c(Cl)cccc4Cl)CC3)cc2)CC1=O (stereo not shown) [Compound 11]
1.35	O=C(Nc1ccc(N2CCN(C(=O)Nc3c(Cl)cccc3Cl)CC2)cc1)c1cccc(N2CCCC2)c1 [Compound 12]
11	O=C(Nc1ccc(N2CCN(C(=O)Nc3c(Cl)cccc3Cl)CC2)cc1)c1cccc(N2CCCC2=O)c1 [Compound 13]
0.977	O=C(Nc1ccc(N2CCN(C(=O)Nc3c(Cl)cccc3Cl)CC2)cc1)c1cccc(-c2ccco2)c1 [Compound 14]
12.9	O=C(Nc1ccc(N2CCN(C(=O)Nc3c(Cl)cccc3Cl)CC2)cc1)c1ccc(-c2cnco2)cc1 [Compound 15]
12	O=C(Nc1ccc(N2CCN(C(=O)Nc3c(Cl)cccc3Cl)CC2)cc1)c1cccc(-c2cnco2)c1 [Compound 16]
2.09	Cc1nc(-c2cccc(C(=O)Nc3ccc(N4CCN(C(=O)Nc5c(Cl)cccc5Cl)CC4)cc3)c2)cs1 [Compound 17]
40.7	CCc1nc(C)c(-c2ccccc2C(=O)Nc2ccc(N3CCN(C(=O)Nc4c(Cl)cccc4Cl)CC3)cc2)s1 [Compound 18]
145	Cc1ccc(C)n1-c1ccc(C(=O)Nc2ccc(N3CCN(C(=O)Nc4c(Cl)cccc4Cl)CC3)cc2)cc1 [Compound 19]
30.9	Cc1ccc(C)n1-c1cccc(C(=O)Nc2ccc(N3CCN(C(=O)Nc4c(Cl)cccc4Cl)CC3)cc2)c1 [Compound 20]
8.91	O=C(Nc1ccc(N2CCN(C(=O)Nc3c(Cl)cccc3Cl)CC2)cc1)c1ccc(-n2cccn2)cc1 [Compound 21]
1380	O=C(Nc1ccc(N2CCN(C(=O)Nc3c(Cl)cccc3Cl)CC2)cc1)c1ccccc1-n1ccnc1 [Compound 22]
33.1	O=C(Nc1ccc(N2CCN(C(=O)Nc3c(Cl)cccc3Cl)CC2)cc1)c1cccc(-n2ccnc2)c1 [Compound 23]
347	O=C(Nc1ccc(N2CCN(C(=O)Nc3c(Cl)cccc3Cl)CC2)cc1)c1ccc(-n2ccnc2)cc1 [Compound 24]

IC50 [nM]	Structure (SMILES)
70.8	O=C(Nc1ccc(N2CCN(C(=O)Nc3c(Cl)cccc3Cl)CC2)cc1)c1ccc(-c2cc[nH]n2)cc1 [Compound 25]
398	Cc1n[nH]c(C)c1-c1ccccc1C(=O)Nc1ccc(N2CCN(C(=O)Nc3c(Cl)cccc3Cl)CC2)cc1 [Compound 26]
3.89	Cc1cc(C)n(-c2ccc(C(=O)Nc3ccc(N4CCN(C(=O)Nc5c(Cl)cccc5Cl)CC4)cc3)cc2)n1 [Compound 27]
5.01	Cc1cc(C)n(-c2cccc(C(=O)Nc3ccc(N4CCN(C(=O)Nc5c(Cl)cccc5Cl)CC4)cc3)c2)n1 [Compound 28]
776	O=C(Nc1ccc(N2CCN(C(=O)Nc3c(Cl)cccc3Cl)CC2)cc1)c1ccc(-n2cnnc2)cc1 [Compound 29]
4.47	Cc1nc(-c2ccc(C(=O)Nc3ccc(N4CCN(C(=O)Nc5c(Cl)cccc5Cl)CC4)cc3)cc2)no1 [Compound 30]
269	Cc1nnnn1-c1cccc(C(=O)Nc2ccc(N3CCN(C(=O)Nc4c(Cl)cccc4Cl)CC3)cc2)c1 [Compound 31]
3310	O=C(Nc1ccc(N2CCN(C(=O)Nc3c(Cl)cccc3Cl)CC2)cc1)c1ccccc1-c1nnn[nH]1 [Compound 32]
1950	O=C(Nc1ccc(N2CCN(C(=O)Nc3c(Cl)cccc3Cl)CC2)cc1)c1ccc(-c2nnn[nH]2)cc1 [Compound 33]
20.4	O=C(Nc1ccc(N2CCN(C(=O)Nc3c(Cl)cccc3Cl)CC2)cc1)c1ccccc1-c1ccccc1 [Compound 34]
117	CC(C)(C)c1ccc(-c2ccccc2C(=O)Nc2ccc(N3CCN(C(=O)Nc4c(Cl)cccc4Cl)CC3)cc2)cc1 [Compound 35]
1.74	Cc1ccccc1-c1cccc(C(=O)Nc2ccc(N3CCN(C(=O)Nc4c(Cl)cccc4Cl)CC3)cc2)c1 [Compound 36]
1.74	O=C(Nc1ccc(N2CCN(C(=O)Nc3c(Cl)cccc3Cl)CC2)cc1)c1cccc(N2CCCCC2)c1 [Compound 37]
11	O=C(Nc1ccc(N2CCN(C(=O)Nc3c(Cl)cccc3Cl)CC2)cc1)c1ccc(N2CCOCC2)cc1 [Compound 38]
380	O=C(Nc1ccc(N2CCN(C(=O)Nc3c(Cl)cccc3Cl)CC2)cc1)c1ccccc1N1CCOCC1 [Compound 39]
6.61	O=C(Nc1ccc(N2CCN(C(=O)Nc3c(Cl)cccc3Cl)CC2)cc1)c1cccc(N2CCOCC2)c1 [Compound 40]
19.1	O=C(Nc1ccc(N2CCN(C(=O)Nc3c(Cl)cccc3Cl)CC2)cc1)c1cccc(N2CCCCS2(=O)=O)c1 [Compound 41]
1170	O=C(Nc1ccc(N2CCN(C(=O)Nc3c(Cl)cccc3Cl)CC2)cc1)c1ccccc1N1CCS(=O)(=O)CC1 [Compound 42]
437	O=C(Nc1ccc(N2CCN(C(=O)Nc3c(Cl)cccc3Cl)CC2)cc1)c1cccc(N2CCS(=O)(=O)CC2)c1 [Compound 43]
100	CN1CCN(c2ccc(C(=O)Nc3ccc(N4CCN(C(=O)Nc5c(Cl)cccc5Cl)CC4)cc3)cc2)CC1 [Compound 44]
56.2	O=C(Nc1ccc(N2CCN(C(=O)Nc3c(Cl)cccc3Cl)CC2)cc1)c1ccccc1-c1nc2ccccc2[nH]1 [Compound 45]
